These results are taken from patent US9120749B2, “Quinoline derivatives and MELK inhibitors containing the same” (ONCOTHERAPY SCIENCE, INC., priority 2010, dated 2015).

Test [1] relates to T47D cells. Description: Cell-based assay: anti-proliferative activity, Cell Counting Kit-8, 72 hours (T47D). Conditions: Homo sapiens, T47D, 72 h. Put shortly: (§1)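 Proliferation read with Cell Counting Kit-8 after 72 hours of inhibitor treatment, from seeding of 2,000–3,000 cells/well. Lines: T47D, A549, BT-549; HT-1197, lacking MELK by western blot, served as negative control. IC50 derived.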
For orientation: Formazan colour is commonly taken as a measure of viable cells.

Test [2] relates to A549 cells. Description: Cell-based assay: anti-proliferative activity, Cell Counting Kit-8, 72 hours (A549). The following applies: Homo sapiens, A549, 72 h, 72 hours. The method, then:
100 micro-L of cell suspension was seeded onto 96-well microtiter plate (ViewPlate-96FTC, PerkinElmer). The initial cell concentration of T47D, A549, BT-549, and HT-1197 were 3,000 cells/well, 2,000 cells/well and 2,500 cells/well, respectively. Cellular growth was determined using Cell Counting Kit-8 (DOJINDO) at 72 hours after the exposure of the candidate inhibitors. […] Accurate IC50 values were calculated as described previously.

Test [3] has as its system HT-1197 cells. Description: Cell-based assay: anti-proliferative activity, Cell Counting Kit-8, 72 hours (HT-1197, negative control without MELK expression). Conditions: Homo sapiens, HT1197, 72 h, HT1197 cells (negative control, no MELK expression), 72 hours. Put shortly: as §1
For test [4], the target named is MELK (Homo sapiens, UniProt Q14680). The experiment in a line: Kinase assay: MELK activity, phosphorylation of FITC-labeled histone H3 peptide measured by IMAP fluorescence polarization. The test is classed as biochemical. The following applies: read-out: IC50 (μM) (kinase assay). The procedure, abridged:
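Fluorescence polarization was measured 0.5 h (room temperature) after quenching with threefold volume of progressive binding solution. Test compounds from 12.5 mM DMSO stocks were assayed at 1% DMSO.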
(Fluorescence polarisation rises when a labelled molecule tumbles more slowly, as on binding a larger partner.)

In test [5] the test system is DU4475 cells. The experiment in a line: Cell-based assay: anti-proliferative activity, Cell Counting Kit-8, 72 hours (DU4475). Conditions: Homo sapiens, DU-4475, 72 h.
Setting [6] is: 50 micro-M ATP, FITC-labeled histone H3 peptide substrate, IMAP fluorescence polarization.

Read-outs that look alike come from different tables or passages of the source.

MELK, sequence (Q14680 whole entry, looked up): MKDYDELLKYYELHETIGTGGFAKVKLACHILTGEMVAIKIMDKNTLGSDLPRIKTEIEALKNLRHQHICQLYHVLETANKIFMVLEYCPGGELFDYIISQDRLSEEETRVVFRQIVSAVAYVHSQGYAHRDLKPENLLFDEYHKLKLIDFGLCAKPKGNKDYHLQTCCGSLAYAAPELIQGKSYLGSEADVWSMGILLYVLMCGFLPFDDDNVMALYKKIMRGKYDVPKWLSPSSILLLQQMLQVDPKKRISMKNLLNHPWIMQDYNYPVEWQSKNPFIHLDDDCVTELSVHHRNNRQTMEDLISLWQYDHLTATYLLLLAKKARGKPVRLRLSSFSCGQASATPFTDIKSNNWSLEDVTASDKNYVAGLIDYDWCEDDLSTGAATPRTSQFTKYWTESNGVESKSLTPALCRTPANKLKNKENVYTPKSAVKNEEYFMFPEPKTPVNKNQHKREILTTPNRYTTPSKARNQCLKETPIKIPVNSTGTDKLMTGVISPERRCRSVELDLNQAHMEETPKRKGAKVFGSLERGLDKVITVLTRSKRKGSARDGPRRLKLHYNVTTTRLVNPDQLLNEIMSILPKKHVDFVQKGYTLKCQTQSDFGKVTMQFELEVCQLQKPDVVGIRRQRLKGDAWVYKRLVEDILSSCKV

As to `COc1cc(-c2ccc3ncc(C(C)=O)c(N[C@H]4CC[C@H](CCN(C)C)CC4)c3c2)cc(Cl)c1O` [Example 738], the IC50 – broadly, the midpoint of a concentration-inhibition curve – in test [1] was found to be 0.51 µM; in test [2], 0.34 µM; in test [3] it was 7.8 µM; in test [4], 0.0026 µM; in test [5], 2.1 µM.

`COc1cc(-c2ccc3ncc(C(=O)C4CC4)c(Nc4ccc(N5CCC(N(C)C)C5)nc4)c3c2)cc(Cl)c1O` (stereo not drawn) [Example 689]: the IC50 was 0.28 µM in test [1]; 1.5 µM in test [2]; 9.4 µM in test [3]; 0.013 µM in test [4]; 3.2 µM in test [5].

For `CN(C)CCc1cccc(Nc2c(C(=O)C3CC3)cnc3ccc(-c4cc(Cl)c(O)c(Cl)c4)cc23)c1` [Example 698, Cyclopropyl{6-(3,5-dichloro-4-hydroxyphenyl)-4-[3-(2-(dimethylamino)ethyl)phenylamino]quinolin-3-yl}methanone], the half-maximal inhibitory concentration (IC50) came out at 0.3 µM in test [1]; 0.05 µM in test [2]; 10 µM in test [3]; 0.0024 µM in test [4]; 0.04 µM in test [5].

For `CN(C)CC(O)c1ccc(Nc2c(C(=O)C3CC3)cnc3ccc(-c4cc(F)c(O)c(Cl)c4)cc23)cc1` (stereo not drawn) [Example 707, {6-(3-Chloro-5-fluoro-4-hydroxyphenyl)-4-[4-(2-(dimethylamino)-1-hydroxyethyl)phenylamino]quinolin-3-yl}(cyclopropyl)methanone], the IC50 in test [1] stood at 0.21 µM; in test [2] it was 0.13 µM; in test [3], 3.4 µM; in test [4], 0.0059 µM; in test [5] it was 0.081 µM.

Regarding `CN(C)C1CCN(c2ccc(Nc3c(C(=O)C4CC4)cnc4ccc(-c5cc(Cl)c(O)c(Cl)c5)cc34)cn2)C1` (stereo not drawn) [Example 690, cyclopropyl(6-(3,5-dichloro-4-hydroxyphenyl)-4-(6-(3-(dimethylamino)pyrrolidin-1-yl)pyridin-3-ylamino)quinolin-3-yl)methanone], the concentration for half-maximal inhibition (IC50) in test [1] is 0.25 µM; in test [2] it was 0.3 µM; in test [3], 4 µM; in test [4], 0.0047 µM; in test [5], 0.19 µM.

`CN1CCCC(n2cc(Nc3c(C(=O)C4CC4)cnc4ccc(-c5cc(Cl)c(O)c(Cl)c5)cc34)cn2)C1` (stereo not drawn) [Example 703, Cyclopropyl{6-(3,5-dichloro-4-hydroxyphenyl)-4-[1-(1-methylpiperidin-3-yl)-1H-pyrazol-4-ylamino]quinolin-3-yl}methanone]: the IC50 came to 0.33 µM in test [1]; 0.11 µM in test [2]; 5.5 µM in test [3]; 0.0013 µM in test [4]; 0.052 µM in test [5].

Regarding `O=C(c1cnc2ccc(-c3cc(Cl)c(O)c(Cl)c3)cc2c1N[C@H]1CC[C@H](CNCCF)CC1)C1CC1` [Example 700], the IC50 in test [1] came to 0.47 µM; in test [2] it was 0.47 µM; in test [3], 2.2 µM; in test [4], 0.0015 µM; in test [5], 0.25 µM.

As to `COc1cc(-c2ccc3ncc(C(=O)C4CC4)c(Nc4ccc(NCCO)nc4)c3c2)cc(Cl)c1O` [Example 677, (6-(3-chloro-4-hydroxy-5-methoxyphenyl)-4-(6-(2-hydroxyethylamino)pyridin-3-ylamino)quinolin-3-yl)(cyclopropyl)methanone], the IC50 worked out at 0.33 µM in test [1]; 0.36 µM in test [2]; 1.5 µM in test [3]; 0.014 µM in test [4]; 0.38 µM in test [5].

With `O=C(c1cnc2ccc(-c3cc(Cl)c(O)c(Cl)c3)cc2c1Nc1ccc(N2CCC(O)C2)nc1)C1CC1` (stereo not drawn) [Example 670, cyclopropyl(6-(3,5-dichloro-4-hydroxyphenyl)-4-(6-(3-hydroxypyrrolidin-1-yl)pyridin-3-ylamino)quinolin-3-yl)methanone], the IC50 in test [1] turned out to be 0.43 µM; in test [2], 0.72 µM; in test [3], 5.3 µM; in test [4], 0.0069 µM; in test [5], 0.59 µM.

For `CN(C)CCOc1ccc(Nc2c(C(=O)C3CC3)cnc3ccc(-c4cc(Cl)c(O)c(Cl)c4)cc23)cn1` [Example 711, Cyclopropyl(6-(3,5-dichloro-4-hydroxyphenyl)-4-(6-(2-(dimethylamino)ethoxy)pyridin-3-ylamino)quinolin-3-yl)methanone], the concentration for half-maximal inhibition (IC50) came out at 0.22 µM in test [1]; 0.11 µM in test [2]; 5.7 µM in test [3]; 0.0032 µM in test [4]; 0.073 µM in test [5].

With `COc1cc(-c2ccc3ncc(C(=O)C4CC4)c(NC4CCC(C)(N)CC4)c3c2)cc(Cl)c1O` (stereo not drawn) [Example 639, [4-(4-Amino-4-methylcyclohexylamino)-6-(3-chloro-4-hydroxy-5-methoxyphenyl)quinolin-3-yl](cyclopropyl)methanone], the IC50 in test [1] stood at 0.1 µM; in test [2] it was 0.09 µM; in test [3] it was 0.46 µM; in test [4], 0.0012 µM; in test [5], 0.062 µM.

For `COc1cc(-c2ccc3ncc(C(=O)C4CC4)c(N[C@H]4CC[C@H](CN5CCN(C)CC5)CC4)c3c2)cc(Cl)c1O` [Example 637], the IC50 in test [1] was 0.68 µM; in test [2], 0.32 µM; in test [3], 2.9 µM; in test [4], 0.0035 µM; in test [5] it was 0.67 µM.

With `CN1CCN(C[C@H]2CC[C@H](Nc3c(C(=O)C4CC4)cnc4ccc(-c5cc(F)c(O)c(Cl)c5)cc34)CC2)CC1` [Example 636], the half-maximal inhibitory concentration (IC50) came to 0.16 µM in test [1], 0.2 µM in test [2], 0.94 µM in test [3] and 0.18 µM in test [5].

`CN(C)C1CCN(Cc2ccc(Nc3c(C(=O)C4CC4)cnc4ccc(-c5cc(Cl)c(O)c(Cl)c5)cc34)cc2)C1` (stereo not drawn) [Example 694, cyclopropyl(6-(3,5-dichloro-4-hydroxyphenyl)-4-(4-((3-(dimethylamino)pyrrolidin-1-yl)methyl)phenylamino)quinolin-3-yl)methanone]: the IC50 in test [1] came to 0.41 µM; in test [2], 0.15 µM; in test [3], 7.5 µM; in test [5], 0.12 µM.

Consider `CC(=O)c1cnc2ccc(-c3cc(Cl)c(O)c(Cl)c3)cc2c1N[C@H]1CC[C@H](CCN(C)C)CC1` [Example 739, 1-(6-(3,5-dichloro-4-hydroxyphenyl)-4-((trans-4-(2-(dimethylamino)ethyl)cyclohexyl)amino)quinolin-3-yl)ethanone], for which the values for the IC50 in test [1], in test [3] and in test [5] were 0.14 µM, 4 µM and 0.099 µM, respectively.

Consider `COc1cc(-c2ccc3ncc(C(C)=O)c(Nc4ccc(CN5CCN(C)CC5)cc4)c3c2)cc(Cl)c1O` [Example 653, 1-(6-(3-chloro-4-hydroxy-5-methoxyphenyl)-4-(4-((4-methylpiperazin-1-yl)methyl)phenylamino)quinolin-3-yl)ethanone], for which the half-inhibitory concentration (IC50) in test [1] was found to be 1.3 µM; in test [2] it was 0.5 µM; in test [3] it was 1.9 µM; in test [5], 0.32 µM.

Take `CN(C)C1CCN(C[C@H]2CC[C@H](Nc3c(C(=O)C4CC4)cnc4ccc(-c5cc(Cl)c(O)c(Cl)c5)cc34)CC2)C1` (stereo partly drawn) [Example 663]: the 50% inhibitory concentration (IC50) in test [1] stood at 0.32 µM; in test [2], 0.22 µM; in test [3], 4.6 µM; in test [5], 0.17 µM.

Consider `O=C(c1cnc2ccc(-c3cc(Cl)c(O)c(Cl)c3)cc2c1-c1ccc(N2CCNCC2)nc1)C1CC1` [Example 459], for which the IC50 in test [1] is 0.83 µM; in test [2], 1.9 µM; in test [3], 10 µM; in test [4] (setting [6]) it was 0.0091 µM.

As for `COc1cc(-c2ccc3ncc(S(C)(=O)=O)c(Nc4ccc(CN(C)C)cc4)c3c2)cc(Cl)c1O` [Example 410, 2-chloro-4-(4-(4-((dimethylamino)methyl)phenylamino)-3-(methylsulfonyl)quinolin-6-yl)-6-methoxyphenol], the IC50 came out at 0.58 µM in test [1], 1.2 µM in test [2], 6.2 µM in test [3] and 0.0068 µM in test [4] (setting [6]).

Regarding `O=C(c1cnc2ccc(-c3cc(Cl)c(O)c(Cl)c3)cc2c1-c1ccc(CN2CCCC2)cc1)C1CC1` [Example 452], the IC50 worked out at 0.55 µM in test [1], 1.6 µM in test [2], 10 µM in test [3] and 0.0026 µM in test [4] (setting [6]).

Regarding `CN(C)CC1CCN(c2c(C(=O)C3CC3)cnc3ccc(-c4ccc5cc(O)ccc5c4)cc23)CC1` [Example 449], the IC50 in test [1] was determined as 1.8 µM; in test [2], 0.64 µM; in test [3], 3.3 µM; in test [4] (setting [6]), 0.014 µM.

Take `COc1cc(-c2ccc3ncc(C(=O)C4CC4)c(Nc4ccc(CN5CCN(C)CC5)cc4)c3c2)ccc1O` [Example 405, cyclopropyl(6-(4-hydroxy-3-methoxyphenyl)-4-(4-((4-methylpiperazin-1-yl)methyl)phenylamino)quinolin-3-yl)methanone]: the IC50 in test [1] was found to be 0.76 µM; in test [2], 0.8 µM; in test [3], 3.5 µM; in test [4] (setting [6]), 0.017 µM.
